Experimental data from the supplement of paper PMC10627819.

How the values were obtained:
S. aureus DSM 20231 [1] = experiment: Bliss interaction score (quartile over a dose matrix) (fitness difference); higher = more antagonism (negative = synergy)
How it was run: (§1)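 The Bliss score is observed fitness minus expected fitness, where the expected value is the product of single-drug fitness values inferred from combination data. Fitness is OD595 at entry into stationary phase normalised to the plate's robust no-drug mean and capped at 1. Scores are reported as quartiles spanning technical, biological and donor/recipient replicates.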

S. pneumoniae D39V [2] = experiment: as above
How it was run: as §1

S. aureus Newman [3] = experiment: as above
How it was run: as §1

B. subtilis 168 [4] = experiment: as above
How it was run: as §1

S. aureus DSM 20231 [5] = experiment: fitness (endpoint OD595 vs no drug) (fraction); higher = more growth
How it was run: (§2)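 Background-subtracted growth curves were the basis for fitness, taken as the optical density at entry into stationary phase over the robust mean of no-drug control wells. A cap of 1 was applied. The curves came from OD595 readings every 30 min for 14 h at 37 °C, in 384-well plates seeded at OD595 0.01 with 30 µl, or 55 µl for S. pneumoniae.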

S. pneumoniae D39V [6] = experiment: as above
How it was run: as §2

S. aureus Newman [7] = experiment: as above
How it was run: as §2

B. subtilis 168 [8] = experiment: as above
How it was run: as §2
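For Bliss interaction score (quartile over a dose matrix) in this document: first quartile when negative (synergy) and third quartile when positive (antagonism).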

C[n+]1ccc(-c2cc[n+](C)cc2)cc1 [Paraquat] + Cc1cc(NS(=O)(=O)c2ccc(N)cc2)no1 [Sulfamethoxazol]
Conditions	Bliss interaction score
B. subtilis 168 [4]	0.0341
S. aureus DSM 20231 [1]	-0.0548
S. aureus Newman [3]	0.0523
S. pneumoniae D39V [2]	-0.0314

fitness
Conditions	partner 1 µg/mL	partner 2 µg/mL	partner 4 µg/mL
B. subtilis 168 [8], first compound 1.25 µg/mL	0.928	0.901	0.976
B. subtilis 168 [8], first compound 2.5 µg/mL	0.901	0.883	0.911
B. subtilis 168 [8], first compound 5 µg/mL	0.821	0.823	0.853
S. aureus DSM 20231 [5], first compound 1.25 µg/mL	0.952	0.959	0.946
S. aureus DSM 20231 [5], first compound 2.5 µg/mL	0.882	0.866	0.842
S. aureus DSM 20231 [5], first compound 5 µg/mL	0.812	0.868	0.885
S. aureus Newman [7], first compound 1.25 µg/mL	0.977	0.946	0.915
S. aureus Newman [7], first compound 2.5 µg/mL	0.985	0.964	–
S. aureus Newman [7], first compound 5 µg/mL	0.928	0.969	0.881
S. pneumoniae D39V [6], first compound 1.5 µg/mL	0.979	0.971	0.926
S. pneumoniae D39V [6], first compound 3 µg/mL	0.966	0.992	0.931
S. pneumoniae D39V [6], first compound 6 µg/mL	0.995	0.986	0.94

fitness, one replicate
Conditions	first compound 1.25 µg/mL	first compound 2.5 µg/mL	first compound 5 µg/mL
B. subtilis 168 [8], partner 0.5 µg/mL	0.922	≥ 1	0.82
S. aureus Newman [7], partner 8 µg/mL	0.949	0.818	0.874

C[n+]1ccc(-c2cc[n+](C)cc2)cc1 [Paraquat] + CN[C@@H]1[C@H](O)[C@H](NC)[C@H]2O[C@@]3(O)C(=O)C[C@@H](C)O[C@H]3O[C@@H]2[C@H]1O [Spectinomycin]
Conditions	Bliss interaction score
B. subtilis 168 [4]	0.0537
S. aureus DSM 20231 [1]	-0.046
S. aureus Newman [3]	0.0596
S. pneumoniae D39V [2]	0.0349

fitness
Conditions	first compound 1.25 µg/mL	first compound 1.5 µg/mL	first compound 2.5 µg/mL	first compound 3 µg/mL	first compound 5 µg/mL	first compound 6 µg/mL
B. subtilis 168 [8], partner 2 µg/mL	0.97	–	0.989	–	0.902	–
B. subtilis 168 [8], partner 4 µg/mL	0.986	–	0.964	–	0.847	–
B. subtilis 168 [8], partner 8 µg/mL	0.877	–	0.882	–	0.847	–
S. aureus DSM 20231 [5], partner 4 µg/mL	0.946	–	0.909	–	0.844	–
S. aureus DSM 20231 [5], partner 8 µg/mL	0.913	–	0.844	–	0.817	–
S. aureus DSM 20231 [5], partner 16 µg/mL	0.837	–	0.874	–	0.758	–
S. aureus Newman [7], partner 4 µg/mL	0.857	–	0.85	–	0.825	–
S. aureus Newman [7], partner 8 µg/mL	0.872	–	0.825	–	0.906	–
S. aureus Newman [7], partner 16 µg/mL	0.89	–	0.849	–	0.833	–
S. pneumoniae D39V [6], partner 4 µg/mL	–	0.964	–	0.976	–	0.995
S. pneumoniae D39V [6], partner 8 µg/mL	–	0.958	–	0.969	–	0.951

fitness, one replicate
Conditions	first compound 1.25 µg/mL	first compound 1.5 µg/mL	first compound 2.5 µg/mL	first compound 3 µg/mL	first compound 5 µg/mL	first compound 6 µg/mL
S. aureus DSM 20231 [5], partner 32 µg/mL	0.669	–	0.713	–	0.735	–
S. aureus DSM 20231 [5], partner 64 µg/mL	0.0748	–	0.0594	–	0.0636	–
S. aureus Newman [7], partner 32 µg/mL	0.62	–	0.6	–	0.563	–
S. aureus Newman [7], partner 64 µg/mL	0.0529	–	0.0827	–	0.106	–
S. pneumoniae D39V [6], partner 16 µg/mL	–	0.851	–	0.856	–	0.913
